Reference: US20070078143A1, “Method for preparing Ziprasidone monohydrochloride-hydrate” (Wockhardt Limited, priority 2003, published 2007)
Structures can show the parent of a compound that is named as a salt.

Key:
[1] = Moisture re-absorption of the dried (anhydrous) salt on exposure to humidity; assay type: physicochemical; conditions: after prolonged drying to anhydrous (moisture content up to 0.7% by weight); exposed at 60% relative humidity
From the text: Anhydrous Ziprasidone monohydrochloride is disclosed in U.S. Pat. No. 5,312,925. The Ziprasidone monohydrochloride-hydrate of the present invention can be made anhydrous having moisture content up to 0.7% by weight, after prolonged drying. It has been observed that the compound re-absorbs moisture up to 6% when it is exposed at 60% relative humidity.

[2] = Solubility in common organic solvents; assay type: physicochemical
Description: Therefore, another objective of the present invention is to find a suitable solvent or solvent mixture to purify crude Ziprasidone base to obtain the required purity with minimal loss of material. The crude Ziprasidone obtained from step (a) is dissolved in a mixture of tetrahydrofuran and N,N-dimethylformamide (7:3, v/v) with activated charcoal and heated to clarify the solution. The solution obtained is filtered, washed with a cold solvent mixture of THF and DMF and dried. The dried Ziprasidone is obtained in 99% HPLC purity.

Row | moisture re-absorbed [1] | solubility in most of the common organic solvents [2] | SMILES
1 | up to 6% | – | O=C1Cc2cc(CCN3CCN(c4nsc5ccccc45)CC3)c(Cl)cc2N1 [Ziprasidone monohydrochloride-hydrate, 5-(2-(4-1,2-benzisothiazol-3-yl)piperazinyl)ethyl)-6-chloro-1,3-dihydro-2H-indol-2-one Monohydrochloride-hydrate]
2 | – | poor solubility | O=C1Cc2cc(CCN3CCN(c4nsc5ccccc45)CC3)c(Cl)cc2N1 [Ziprasidone, 5-(2-(4-(1,2-benzisothiazol-3-yl)-1-piperazinyl)ethyl)-6-chloro-1,3-dihydro-2H-indole-2-one]
